Test results taken from patent US7727275B2, “Drug-delivery endovascular stent and method of forming the same” (Biosensors International Group, Ltd., priority 2002, dated 2010).

System: restenosis (neointimal formation) in severely injured coronary vessels
Assay: Swine restenosis model, "high injury" experiment: QCA and morphometric analysis 28 days after stent implant
Type: in vivo, out-bred juvenile swine
Description: The studies are summarized in Example 4.
Briefly, the studies compare the extent of restenosis at 28 days following stent implantation, in bare metal stents, polymer-coated stents, and polymer coated stents containing high or low concentrations of sirolimus (rapamycin) and everolimus.
It was reasoned that the most challenging treatment condition for the drug eluting stent is a severely injured vessel, as it is known that the degree of restenosis (neointimal formation) increases directly with extent of vessel injury. […]
Drug-eluting stents using a metal wire-mesh scaffold of a corrugated ring design (i.e. S-Stent) and polymer coating were implanted in out-bred juvenile swine (alternately Yucatan Minipigs for implant studies lasting longer than 28 days), using different dosings of either the drug everolimus or the drug sirolimus. At time of implant, Quantitative Coronary Angiography (QCA) was performed to measure the diameter of the vessels both before and after stent implantation. […]
A computerized imaging system Image Pro Plus 4.0 through an A.G. Heinze slide microscope for a PC-based system was used for histomorphometric measurements of: • 1. […] To quantify the degree of vascular injury, a score based on the amount and length of tear of the different wall structures was used. […]

CO[C@H]1C[C@@H]2CC[C@@H](C)[C@@](O)(O2)C(=O)C(=O)N2CCCC[C@H]2C(=O)O[C@H]([C@H](C)C[C@@H]2CC[C@@H](OCCO)[C@H](OC)C2)CC(=O)[C@H](C)/C=C(\C)[C@@H](O)[C@@H](OC)C(=O)[C@H](C)C[C@H](C)/C=C/C=C/C=C/1C [everolimus, 40-0-(2-hydroxyl)ethyl-rapamycin]
extent of restenosis / neointima formation (in words): better than, or at least equivalent to the 180 microgram dosage of sirolimus
